# According to patent publication US20080057113A1, “Pharmaceutical Anti-Herpetic Composition, Method for Producing a Dosage Form Based Thereon and Method for the Use Thereof” (priority 2003, published 2008):
# Test system: herpetic infection
# Assay: Effectiveness of treating herpetic infection upon incorporation of isoleucine
# Assay type: in vivo
# Conditions: isoleucine incorporated into the composition
# Experimental: The effectiveness of treating herpetic infection increases to a considerable extent upon incorporation of isoleucine into the composition, by 10-28% as compared to control. Isoleucine may be contained in the formulation of the preparation in an amount of 0.11-0.22 g per 100 ml of composition.
smiles,measurement,value
CC[C@H](C)[C@H](N)C(=O)O [isoleucine],Increase of effectiveness of treating herpetic infection as compared to control,10-28%
